According to US20240376090A1, “ISOXAZOLE DERIVATIVES AS MODULATORS OF THE 5-HT2A SEROTONIN RECEPTOR USEFUL FOR THE TREATMENT OF DISORDERED RELATED THERETO” (Arena Pharmaceuticals, Inc., priority 2020, published 2024):

What was measured:
5-HT2A receptor [1] = target: T1, 5-HT2A receptor (Homo sapiens (Human), UniProt P28223); test: Radioligand binding assay ([3H]5-HT competition), 5-HT2A; settings: [3H]5-HT radioligand, membranes of HEK293 cells expressing recombinant 5-HT2A; Ki from IC50 by Cheng-Prusoff; read-out: 5-HT2A serotonin binding Ki value
5-HT2A receptor [2] = target: T1, 5-HT2A receptor; test: HTRF IP-One antagonist assay, 5-HT2A; type: cell-based; settings: HEK293 cells stably expressing recombinant human receptor; IP accumulation with 80 nM 5-HT
Description: (§1) HEK293 cells stably expressing 5-HT2 receptors were generated using standard procedures. Cells were dilution cloned and clonal cell lines stably expressing the receptors at low levels were selected for pharmacology studies. In radioligand binding studies using a variety of radiolabeled probes, receptor densities in the 2A, 2B and 2C cell lines were estimated to be 50-70, 150-200, and 10-20 fmol/mg, respectively.
(§2) Inositol phosphate accumulation assays were performed using the HTRF IP-One assay system developed by Cisbio and generally followed the manufacturer's instructions. Briefly, HEK293 cells stably expressing recombinant human receptors were harvested and resuspended in phenol-red free OptiMEM (ThermoFisher), plated into 384-well assay plates (Perkin Elmer, ProxiPlate-Plus® Cat #6008280) at 10,000 cells/well in a volume of 10 μL/well, and incubated overnight at 37° C., 5% CO2. Test compounds were solubilized and serially diluted in DMSO, and then diluted into Assay Buffer (Tris HCl 20 mM, NaCl 150 mM, LiCl 40 mM, pargyline 25 μM, pH 8) containing 80 nM 5-HT. Test compounds were added to the cells (4 μL/well addition, maximal final assay concentration typically 10 μM) and plates, incubated for 2 hrs at 37° C./5% CO2 and then removed from the incubator and allowed to cool to room temperature for 30 minutes prior to addition of IP-One detection reagents. IP-One detection reagents (6 μL/well) were added and plates incubated for 1 hr at room temperature before reading on an HTRF compatible reader such as a Perkin Elmer EnVision® or BMG PheraStar®. Dose-response experiments utilized 10-point curves, typically starting at 10 μM, with 5-fold serial dilutions. Experiments were performed with triplicate data points and independent replicate experiments were performed to ensure data consistency.

5-HT2B receptor = 5-HT2B receptor (Homo sapiens (Human), UniProt P41595); test: HTRF IP-One antagonist assay, 5-HT2B; type: cell-based; settings: HEK293 cells stably expressing recombinant human receptor; IP accumulation with 80 nM 5-HT
Description: as §1, §2

5-HT2C receptor = 5-HT2C receptor (Homo sapiens (Human), UniProt P28335); test: HTRF IP-One antagonist assay, 5-HT2C; type: cell-based; settings: HEK293 cells stably expressing recombinant human receptor; IP accumulation with 80 nM 5-HT
Description: as §1, §2

Chain of 5-HT2C receptor (P28335 33-458): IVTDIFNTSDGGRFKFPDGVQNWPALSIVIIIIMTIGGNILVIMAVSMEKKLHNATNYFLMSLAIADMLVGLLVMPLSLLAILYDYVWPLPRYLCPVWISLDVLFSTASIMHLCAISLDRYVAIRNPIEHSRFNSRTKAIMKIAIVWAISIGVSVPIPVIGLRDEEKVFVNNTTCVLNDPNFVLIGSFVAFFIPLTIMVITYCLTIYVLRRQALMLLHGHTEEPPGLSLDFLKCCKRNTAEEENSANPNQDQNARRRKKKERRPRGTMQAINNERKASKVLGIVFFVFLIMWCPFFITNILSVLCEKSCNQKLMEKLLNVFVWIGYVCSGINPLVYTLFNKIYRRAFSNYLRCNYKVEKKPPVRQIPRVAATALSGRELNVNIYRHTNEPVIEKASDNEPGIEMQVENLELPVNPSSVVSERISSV
T1 sequence (P28223 whole entry): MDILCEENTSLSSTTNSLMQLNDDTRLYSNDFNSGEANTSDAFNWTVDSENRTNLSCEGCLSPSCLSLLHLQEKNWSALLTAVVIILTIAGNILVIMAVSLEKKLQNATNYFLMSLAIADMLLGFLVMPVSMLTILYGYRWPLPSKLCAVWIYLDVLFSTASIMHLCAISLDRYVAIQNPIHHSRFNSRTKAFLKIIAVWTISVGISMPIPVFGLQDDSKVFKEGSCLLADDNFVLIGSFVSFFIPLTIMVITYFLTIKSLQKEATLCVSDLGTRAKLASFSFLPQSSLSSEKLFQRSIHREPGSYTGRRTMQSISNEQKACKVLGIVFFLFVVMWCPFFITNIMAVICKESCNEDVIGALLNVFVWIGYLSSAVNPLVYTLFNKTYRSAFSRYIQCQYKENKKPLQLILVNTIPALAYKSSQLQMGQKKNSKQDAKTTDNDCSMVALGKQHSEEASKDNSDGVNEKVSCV
Chain of 5-HT2B receptor (P41595 whole entry): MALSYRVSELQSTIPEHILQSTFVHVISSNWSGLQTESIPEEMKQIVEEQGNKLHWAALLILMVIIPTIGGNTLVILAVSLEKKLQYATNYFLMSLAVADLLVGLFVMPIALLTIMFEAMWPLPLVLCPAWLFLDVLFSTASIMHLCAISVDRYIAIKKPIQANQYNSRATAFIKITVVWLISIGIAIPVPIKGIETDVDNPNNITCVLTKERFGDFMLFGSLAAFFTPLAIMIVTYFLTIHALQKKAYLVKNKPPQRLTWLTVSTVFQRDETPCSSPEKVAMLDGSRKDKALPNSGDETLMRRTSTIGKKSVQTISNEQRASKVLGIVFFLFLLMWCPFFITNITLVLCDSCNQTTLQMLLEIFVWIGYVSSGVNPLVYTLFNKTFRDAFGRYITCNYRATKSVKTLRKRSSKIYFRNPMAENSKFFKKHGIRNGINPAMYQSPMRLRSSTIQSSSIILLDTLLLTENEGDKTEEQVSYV

SMILES	Ki (5-HT2A receptor [1]) [nM]	IC50 (5-HT2A receptor [2]) [nM]	IC50 (5-HT2B receptor) [nM]	IC50 (5-HT2C receptor) [nM]
Cc1noc(C)c1-c1cc(NC(=O)C2(F)CC2)ccc1OCCN1CCCC1 [Compound 113, N-[3-(3,5-dimethylisoxazol-4-yl)-4-(2-pyrrolidin-1-ylethoxy)phenyl]-1-fluoro-cyclopropanecarboxamide]	2.66	8.95	≥ 100000	≥ 100000
Cc1noc(C)c1-c1cc(NC(=O)Cc2cnsc2)ccc1OC[C@H]1CCCCN1 [Compound 234, (R)—N-(3-(3,5-dimethylisoxazol-4-yl)-4-(piperidin-2-ylmethoxy)phenyl)-2-(isothiazol-4-yl)acetamide]	0.657	2.39	≥ 100000	≥ 100000
Cc1noc(C)c1-c1cc(NC(=O)c2ccccc2)ccc1OC1CNC1 [Compound 241, N-(4-(azetidin-3-yloxy)-3-(3,5-dimethylisoxazol-4-yl)phenyl)benzamide]	6.94	35	≥ 100000	≥ 100000
Cc1nscc1C(=O)Nc1ccc(OC[C@H]2CCCCN2)c(-c2c(C)noc2C)c1 [Compound 187, (R)—N-(3-(3,5-dimethylisoxazol-4-yl)-4-(piperidin-2-ylmethoxy)phenyl)-3-methylisothiazole-4-carboxamide]	4.01	36.2	≥ 100000	≥ 100000
Cc1noc(C)c1-c1cc(NC(=O)C2CC2)ccc1OC[C@H]1CCCCN1 [Compound 169, N-[3-(3,5-dimethylisoxazol-4-yl)-4-[[(2R)-2-piperidyl]methoxy]phenyl]cyclopropanecarboxamide]	2.16	13	≥ 100000	≥ 100000
Cc1noc(C)c1-c1cc(NC(=O)c2c(F)cnn2C)ccc1OCCN1CCCC1 [Compound 114, N-(3-(3,5-dimethylisoxazol-4-yl)-4-(2-(pyrrolidin-1-yl)ethoxy)phenyl)-4-fluoro-1-methyl-1H-pyrazole-5-carboxamide]	2.6	8.69	≥ 100000	≥ 100000
Cc1noc(C)c1-c1cc(NC(=O)c2ccc(F)cc2)ccc1OC[C@H]1CCCCN1 [Compound 219, (R)—N-(3-(3,5-dimethylisoxazol-4-yl)-4-(piperidin-2-ylmethoxy)phenyl)-4-fluorobenzamide]	2.92	10.4	≥ 100000	≥ 100000
Cc1noc(C)c1-c1cc(NC(=O)C2CC2)ccc1OCCN1CCC(O)CC1 [Compound 146, N-(3-(3,5-dimethylisoxazol-4-yl)-4-(2-(4-hydroxypiperidin-1-yl)ethoxy)phenyl)cyclopropanecarboxamide]	5.08	15.7	≥ 100000	≥ 100000
COCCNCCOc1ccc(NC(=O)C2CC2)cc1-c1c(C)noc1C [Compound 197, N-[3-(3,5-dimethylisoxazol-4-yl)-4-[2-(2-methoxyethylamino)ethoxy]phenyl]cyclopropanecarboxamide]	1.08	4.95	≥ 100000	≥ 100000
Cc1noc(C)c1-c1cc(NC(=O)c2c(F)cnn2C)ccc1OC1CNC1 [Compound 240, N-(4-(azetidin-3-yloxy)-3-(3,5-dimethylisoxazol-4-yl)phenyl)-4-fluoro-1-methyl-1H-pyrazole-5-carboxamide]	1.36	17.8	≥ 100000	≥ 100000
Cc1nonc1C(=O)Nc1ccc(OC[C@H]2CCCCN2)c(-c2c(C)noc2C)c1 [Compound 232, (R)—N-(3-(3,5-dimethylisoxazol-4-yl)-4-(piperidin-2-ylmethoxy)phenyl)-4-methyl-1,2,5-oxadiazole-3-carboxamide]	3.86	24.8	≥ 100000	≥ 100000
Cc1noc(C)c1-c1cc(NC(=O)Cc2ccccc2)ccc1OC[C@H]1CCCCN1 [Compound 221, (R)—N-(3-(3,5-dimethylisoxazol-4-yl)-4-(piperidin-2-ylmethoxy)phenyl)-2-phenylacetamide]	4.22	17.8	≥ 100000	≥ 100000
COc1cccc(C(=O)Nc2ccc(OC[C@H]3CCCCN3)c(-c3c(C)noc3C)c2)c1 [Compound 220, (R)—N-(3-(3,5-dimethylisoxazol-4-yl)-4-(piperidin-2-ylmethoxy)phenyl)-3-methoxybenzamide]	0.907	2.58	≥ 100000	≥ 100000
Cc1noc(C)c1-c1cc(NC(=O)Cc2ccns2)ccc1OC[C@H]1CCCCN1 [Compound 233, (R)—N-(3-(3,5-dimethylisoxazol-4-yl)-4-(piperidin-2-ylmethoxy)phenyl)-2-(isothiazol-5-yl)acetamide]	1.64	9.5	≥ 100000	≥ 100000
Cc1noc(C)c1-c1cc(NC(=O)c2cccc(F)c2)ccc1OC1CNC1 [Compound 243, N-(4-(azetidin-3-yloxy)-3-(3,5-dimethylisoxazol-4-yl)phenyl)-3-fluorobenzamide]	1.07	16.5	≥ 100000	6210
Cc1noc(C)c1-c1cc(NC(=O)c2cccn2C)ccc1OC[C@H]1CCCCN1 [Compound 189, (R)—N-(3-(3,5-dimethylisoxazol-4-yl)-4-(piperidin-2-ylmethoxy)phenyl)-1-methyl-1H-pyrrole-2-carboxamide]	3.92	24.9	≥ 100000	≥ 100000
Cc1noc(C)c1-c1cc(NC(=O)Cc2cccc(F)c2)ccc1OC[C@H]1CCCCN1 [Compound 223, (R)—N-(3-(3,5-dimethylisoxazol-4-yl)-4-(piperidin-2-ylmethoxy)phenyl)-2-(3-fluorophenyl)acetamide]	1.69	14.7	≥ 100000	≥ 100000
Cc1noc(C)c1-c1cc(NC(=O)C2CC2)ccc1OCCN1CCC2(CCC(=O)O2)CC1 [Compound 141, N-(3-(3,5-dimethylisoxazol-4-yl)-4-(2-(2-oxo-1-oxa-8-azaspiro[4.5]decan-8-yl)ethoxy)phenyl)cyclopropanecarboxamide]	9.47	49.7	≥ 100000	≥ 100000
Cc1ncoc1C(=O)Nc1ccc(OC[C@H]2CCCCN2)c(-c2c(C)noc2C)c1 [Compound 196, (R)—N-(3-(3,5-dimethylisoxazol-4-yl)-4-(piperidin-2-ylmethoxy)phenyl)-4-methyloxazole-5-carboxamide]	10.2	45	≥ 100000	≥ 100000
Cc1noc(C)c1-c1cc(NC(=O)Cc2cncc(F)c2)ccc1OC[C@H]1CCCCN1 [Compound 226, (R)—N-(3-(3,5-dimethylisoxazol-4-yl)-4-(piperidin-2-ylmethoxy)phenyl)-2-(5-fluoropyridin-3-yl)acetamide]	10.4	10.9	≥ 100000	≥ 100000
Cc1noc(C)c1-c1cc(NC(=O)C2(F)CC2)ccc1OC1CNC1 [Compound 245, N-(4-(azetidin-3-yloxy)-3-(3,5-dimethylisoxazol-4-yl)phenyl)-1-fluorocyclopropane-1-carboxamide]	2.05	37.9	≥ 100000	≥ 100000
Cc1ncsc1C(=O)Nc1ccc(OCCN2CCC2)c(-c2c(C)noc2C)c1 [Compound 119, N-(4-(2-(azetidin-1-yl)ethoxy)-3-(3,5-dimethylisoxazol-4-yl)phenyl)-4-methylthiazole-5-carboxamide]	9.58	13	≥ 100000	≥ 100000
Cc1noc(C)c1-c1cc(NC(=O)C2(F)CC2)ccc1O[C@@H]1CCNC1 [Compound 238, (R)—N-(3-(3,5-dimethylisoxazol-4-yl)-4-(pyrrolidin-3-yloxy)phenyl)-1-fluorocyclopropane-1-carboxamide]	3.61	45.2	≥ 100000	≥ 100000
CCOC1CC1C(=O)Nc1ccc(OC[C@H]2CCCCN2)c(-c2c(C)noc2C)c1 (stereo partly drawn) [Compound 229, N-(3-(3,5-dimethylisoxazol-4-yl)-4-(((R)-piperidin-2-yl)methoxy)phenyl)-2-ethoxycyclopropane-1-carboxamide]	4.72	20.7	≥ 100000	≥ 100000
Cc1noc(C)c1-c1cc(NC(=O)c2ccccc2)ccc1OC[C@H]1CCCCN1 [Compound 218, (R)—N-(3-(3,5-dimethylisoxazol-4-yl)-4-(piperidin-2-ylmethoxy)phenyl)benzamide]	4.85	21.8	≥ 100000	≥ 100000
